One data set has as its system human iPSC line 1383D6. The data set can be described thus: Effect of cytochalasin B on platelet-based mCherry mRNA delivery. Type of data set: cell-based. Particulars: 100 nM or 350 nM. The procedure: The effects of cytochalasin B (CytoB), which is an inhibitor of tunneling nanotubes, on platelet-based mRNA delivery were investigated in the exemplary human iPSC line 1383D6. The cells were plated at a density of 2×10^5 cells/well in a 12 well plate and grown overnight at 37° C. with 5% CO2. Platelets were loaded with 5 μg of mCherry mRNA using Lipofectamine MessengerMax as described herein. The mRNA loaded platelets were further prepared by centrifuging at 1800×g at room temperature for 10 min, washing with EBM, and resuspending in fresh 600 μL culture media. Then, 100 μL of the mRNA loaded platelets (corresponding to 0.8 μg mRNA/well) containing 100 nM or 350 nM CytoB (or without CytoB as control) was added to the cells in a total volume of 1 mL culture media. After 24 hour incubation at 37° C. with 5% CO2, fluorescent images were obtained with a BZ-X810 fluorescence microscope (Keyence) using a TRITC filter. Subsequently, the cells were harvested using 0.25% trypsin-EDTA solution, washed twice with PBS, and centrifuged. The cell pellet was dispersed using PBS containing 3% FBS, stained with LIVE/DEAD Fixable Green Dead Cell Stain Kit (Thermo Fisher Scientific) according to manufacturer's instructions. […] Relative value in mean fluorescence intensity (MFI) was calculated with respect to the control samples without CytoB.

The subject of a further data set is HUVECs. Description: Co-culture of MEG-01-GFP megakaryocyte-derived GFP-positive platelets with HUVECs (protein delivery). The class given is cell-based, human. Particulars: 80 μM concentration. The procedure: In addition to nucleic acids such as mRNA, modified platelets were used to deliver protein. MEG-01 megakaryocytes were transduced with pLV-GFP lentivirus to induce expression of GFP (MEG-01-GFP). These megakaryocytes were cultured to produce GFP-positive platelets (FIG. 4A), which were co-cultured with HUVECs.
In a separate experiment, GFP-positive platelets were co-cultured with mCherry-expressing HUVECs.

The next data set deals with 293T cells. Description: Screening of anchoring protein HA fusion constructs, PE anti-HA flow cytometry. Particulars: live cells, gated on eGFP. Type of data set: cell-based. From the text:
FIG. 15A depicts exemplary constructs used for the determination and identification of cell surface targeting ligands, which can be, for example, expressed on platelets to increase cell type specificity. The exemplary constructs involve custom TetOn expression vectors with left/right homologue arms to AAVS1. TetOn allows for conditional expression of targeting ligands or epitopes fused to the N- and C-termini of platelet cell surface markers (e.g. CD41, CD42a, CD61). Downstream cGFP through a P2A linker allows for successful identification of cells expressing the fusion vector. FIG. 15B depicts flow cytometry plots of 293T cells transfected with the exemplary N- or C-terminal fusion vectors depicted in FIG. 15A using CD41, CD42a, and CD61. Live cells were stained with a PE anti-HA fluorescent antibody and gated upon cGFP expression during flow cytometry analysis. PE fluorescence is shown against control (untransfected) 293T cells stained with PE anti-HA (shaded).
(A flow cytometer gives signals particle by particle.)

The values below come from patent publication US20250195684A1, “DELIVERY METHODS USING PLATELETS” (Children's Hospital Medical Center, priority 2022, published 2025).

In the case of `C=C1[C@@H](C)[C@H]2[C@H](Cc3ccccc3)NC(=O)[C@]23OC(=O)/C=C/[C@H](O)CCC[C@@H](C)C/C=C/[C@H]3[C@@H]1O` [CytoB, cytochalasin B], the “effect on platelet-based mRNA delivery” value in the data set on human iPSC line 1383D6 is “Prevents Platelet-Based mRNA Delivery”. In addition, the “cell death (MFI of green dead cell stain)” value with human iPSC line 1383D6 (24 hour) is recorded as “does not cause cell death”. In the case of `O=C(N/N=C/c1ccc(O)c(O)c1)c1cc2ccccc2cc1O` [dynasore], the “transformation of HUVECs by platelets treated with inhibitor” value in the data set with HUVECs is “unable to transform HUVECs”.

On to “C-terminal fusion of CD61 with an HA epitope: TetOn expression construct of platelet surface marker CD61 fused C-terminally to an HA epitope, with P2A eGFP”, for which the results for the “exposure of HA epitope on cell surface” value in the data set on 293T cells and in the data set on 293T cells (listed as C-terminal CD61-HA fusion construct) were “robust exposure of the HA epitope on the 293T cell surface” and “results in anti-HA fluorescence on the cell surface”, respectively.
